Measurements reported in patent US8552145B2, “Vaccine for modulating between T1 and T2 immune responses” (priority 2001, dated 2013).
No end group written: not given here.

Tests used:
[1] = system: BP1-151HSA conjugate (MUC1 24 amino acid peptide conjugated to HSA); assay: Anti-MUC1 antibody levels (serum ELISA) after immunization, BP1-151-HSA solid phase; assay type: in vivo, C57BL/6 mice; details: for antibody levels / humoral immunity (in words): immunized mice, liposomal formulations containing lipid A adjuvant
Procedure: (§1) MUC1 based liposomal vaccines (“BLP25 liposomal vaccines”) at a dose of 100 μg (250 μl) was injected subcutaneously, two, three, or four times, at biweekly intervals, into right and left inguinal regions (125 μl per each site).

[2] = system: Blend C (natural human MUC1 mucin purified from ovarian cancer ascites); assay: Anti-MUC1 antibody levels (serum ELISA) after immunization, Blend C solid phase; assay type: in vivo; details: Protocol 1346; C57Bl/6 mice immunized two times, subcutaneously; individual mouse
Blend C (natural human MUC1 mucin purified from ovarian cancer ascites), sequence (P15941 24-1255): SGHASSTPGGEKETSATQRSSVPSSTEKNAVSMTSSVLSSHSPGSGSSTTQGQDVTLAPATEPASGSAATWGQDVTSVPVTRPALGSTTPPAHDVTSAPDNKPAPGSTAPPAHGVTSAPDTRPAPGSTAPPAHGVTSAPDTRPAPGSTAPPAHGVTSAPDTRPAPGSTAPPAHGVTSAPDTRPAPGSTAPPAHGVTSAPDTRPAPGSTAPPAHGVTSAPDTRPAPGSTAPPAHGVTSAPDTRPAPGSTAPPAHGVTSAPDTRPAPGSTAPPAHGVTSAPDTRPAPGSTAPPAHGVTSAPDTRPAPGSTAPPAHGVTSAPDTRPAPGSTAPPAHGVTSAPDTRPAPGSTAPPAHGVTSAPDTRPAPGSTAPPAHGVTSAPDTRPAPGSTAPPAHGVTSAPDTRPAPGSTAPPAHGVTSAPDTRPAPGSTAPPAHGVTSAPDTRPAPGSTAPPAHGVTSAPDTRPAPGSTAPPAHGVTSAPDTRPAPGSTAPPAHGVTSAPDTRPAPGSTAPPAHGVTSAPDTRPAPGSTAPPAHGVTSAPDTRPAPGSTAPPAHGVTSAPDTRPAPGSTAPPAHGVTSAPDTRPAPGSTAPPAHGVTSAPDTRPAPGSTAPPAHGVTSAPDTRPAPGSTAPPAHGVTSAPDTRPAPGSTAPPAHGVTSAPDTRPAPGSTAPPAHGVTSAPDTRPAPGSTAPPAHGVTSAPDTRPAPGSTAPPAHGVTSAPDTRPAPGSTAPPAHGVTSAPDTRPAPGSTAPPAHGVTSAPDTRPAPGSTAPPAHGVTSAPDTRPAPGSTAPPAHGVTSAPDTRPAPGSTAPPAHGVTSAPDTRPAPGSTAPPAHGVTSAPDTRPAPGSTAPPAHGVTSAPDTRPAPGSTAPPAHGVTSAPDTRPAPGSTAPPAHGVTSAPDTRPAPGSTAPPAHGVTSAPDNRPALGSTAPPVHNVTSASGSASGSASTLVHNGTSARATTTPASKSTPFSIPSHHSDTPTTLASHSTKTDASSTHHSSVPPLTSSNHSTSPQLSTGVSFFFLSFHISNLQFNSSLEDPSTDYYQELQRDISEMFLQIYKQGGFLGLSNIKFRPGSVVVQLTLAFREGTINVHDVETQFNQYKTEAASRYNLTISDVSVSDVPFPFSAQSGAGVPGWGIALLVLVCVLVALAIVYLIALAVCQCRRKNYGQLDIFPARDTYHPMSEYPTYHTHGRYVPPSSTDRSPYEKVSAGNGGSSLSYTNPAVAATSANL
Procedure: as §1

[3] = system: BP1-151HSA conjugate (MUC1 24 amino acid peptide conjugated to HSA); assay: Anti-MUC1 IgG levels (serum ELISA) in MUC1 transgenic mice, BP1-151 HSA solid phase; assay type: in vivo, C57Bl/6 MUC1 transgenic mice; details: Protocol 1347C, 4 immunizations, individual mouse
Source text: To further characterize the observed phenomenon, MUC I transgenic mice were immunized with MUC I based liposomal formulations containing mono- or dilipopeptides.

Substance	Antibody Titer, IgG, BP1-151-HSA ([1]; Protocol 1346, C57Bl/6 mice immunized two times, subcutaneously, individual mouse)	antibody levels / humoral immunity (in words) [1]	Antibody Titer, IgG, Blend C [2]	Antibody Titer, IgG, BP1-151 HSA [3]
GVTSAPDTRPAPGSTAS(myristyl)L [BP1-228]	only low titers	very low or no antibody levels	no antibodies were detected	very low titers of IgG
TAPPAHGVTSAPDTRPAPGSTAPPK(palmitate)K(palmitate)G [BP1-132A]		induce humoral immunity		
GVTSAPDTRPAPGSTAS(myristyl)S(myristyl)L [BP1-217]				strong IgG antibody response
